Legend:
[1] = Therapeutic index comparison; settings: as compared to divalproex sodium
[2] = system: PKC; experiment: Inhibition of PKC activity; format: biochemical; settings: relative to tamoxifen
[3] = system: PKC; settings: cited from earlier work
[4] = in human; cited from earlier work

Structure (SMILES)	therapeutic index [1]	potency in inhibiting the PKC activity compared to tamoxifen [2]	PKC inhibition [3]	antimanic properties [4]
CC/C(=C(\c1ccc(O)cc1)c1ccc(OCCNC)cc1)c1ccccc1.O=C(O)CC(O)(CC(=O)O)C(=O)O [Endoxifen, (Z)-1-(4-Hydroxyphenyl)-1-{4-[2-(monomethylamino)ethoxy]phenyl}-2-phenyl-1-butene citrate]	broad therapeutic index	four-fold higher potency		
CC/C(=C(\c1ccccc1)c1ccc(OCCN(C)C)cc1)c1ccccc1 [Tamoxifen]			known to inhibit PKC	demonstrate antimanic properties in human
